The text below walks through data of ChEMBL document CHEMBL5120881, “Silencing Tautomerization to Isolate Unstable Physalins from Physalis minima” (J Nat Prod, 2022).

Data set [1] is described as follows: Cytotoxicity against human L02 cells assessed as cell viability at 10 uM incubated for 48 hrs by CCK8 assay. The class given is toxicity, cell-based. As to conditions: read-out: Activity. (Formazan colour is commonly taken as a measure of viable cells.)
Data set [2] deals with MCF7. Briefly: Antiproliferative activity against human MCF7 cells assessed as reduction in cell viability incubated for 48 hrs by CCK8 assay. It counts as functional, cell-based. As to conditions: MCF7, 48 h.
For data set [3], the system named is A549. Briefly: Antiproliferative activity against human A549 cells assessed as reduction in cell viability incubated for 48 hrs by CCK8 assay. The class given is functional, cell-based. Particulars: A549, 48 h.
A short description of data set [4]: Cytotoxicity against mouse RAW264.7 cells assessed as cell viability at 10 uM incubated for 48 hrs by CCK8 assay. It counts as toxicity, cell-based. As to conditions: read-out: Activity.
The subject of data set [5] is RAW264.7. Briefly: Antiinflammatory activity in mouse RAW264.7 assessed as inhibition of LPS-stimulated NO production pretreated with LPS followed by compund addition by Griess reagent based microplate reader assay. It counts as functional, cell-based. For orientation: Griess reagent forms a coloured azo dye with nitrite.
Data set [6] relates to SGC-7901. Put plainly: Antiproliferative activity against human SGC-7901 cells assessed as reduction in cell viability incubated for 48 hrs by CCK8 assay. The class given is functional, cell-based. As to conditions: SGC-7901, 48 h.
Data set [7] deals with HepG2. Briefly: Antiproliferative activity against human HepG2 cells assessed as reduction in cell viability incubated for 48 hrs by CCK8 assay. The class given is functional, cell-based. Particulars: HepG2, 48 h.

One may read the IC50 as the concentration needed to halve the response being measured. On to `C=C1C(=O)O[C@@H]2C[C@@]1(C)[C@@H]1C(=O)[C@@]3(O)O[C@]14[C@@]2(C)OC(=O)[C@@]4(O)CC[C@H]1[C@H]3C[C@@H](O)[C@@]2(O)CC=CC(=O)[C@]12C`, for which the viability at 48 h, 10 µM in data set [1] came to 97.5%; in data set [4], 93.5%. In addition, the IC50 in data set [2] worked out at 7.3 µM; in data set [3] it was 5.4 µM; in data set [6], 12.4 µM; in data set [7], 9.8 µM. Besides, the “inhibition (INH)” value in data set [5] is given as below 50%.

Take `C=C1C(=O)O[C@@H]2C[C@@]1(C)[C@@H]1C(=O)[C@@]3(O)O[C@]14[C@@]2(C)OC(=O)[C@@]4(O)CC[C@H]1[C@H]3CC=C2CC=CC(=O)[C@@]21C`: the viability at 48 h, 10 µM in data set [1] turned out to be 94.2%; in data set [4] it was 90.7%. Also, the half-maximal inhibitory concentration (IC50) in data set [2] worked out at 7.6 µM; in data set [3], 8.9 µM; in data set [6] it was 2.8 µM; in data set [7] it was 13.2 µM. Besides, the “inhibition (INH)” value in data set [5] was below 50%.

For `C=C1C(=O)O[C@@H]2C[C@@]1(C)[C@@H]1C(=O)[C@@]3(O)O[C@]14[C@@]2(C)OC(=O)[C@@]4(O)CC[C@H]1[C@H]3C[C@H]2O[C@]23CC=CC(=O)[C@]13C`, the viability at 48 h, 10 µM worked out at 90.2% in data set [1] and 85.2% in data set [4]. Moreover, the IC50 in data set [2] turned out to be 0.9 µM; in data set [3], 0.2 µM; in data set [6] it was 0.3 µM; in data set [7], 1.3 µM. For the same compound, the “inhibition (INH)” value in data set [5] was below 50%.

`C=C1C(=O)O[C@@H]2C[C@@]1(C)[C@@H]1C(=O)[C@@]3(O)O[C@]14[C@@]2(C)OC(=O)[C@@]4(O)CC[C@H]1[C@H]3C[C@@H](O)[C@@]2(OC)CC=CC(=O)[C@]12C`: the viability at 48 h, 10 µM amounted to 98.1% in data set [1] and 94.2% in data set [4]. For the same compound, the IC50 was determined as 10.6 µM in data set [2]; 11.4 µM in data set [3]; 25.6 µM in data set [5] (Mus musculus, RAW264.7); 7.8 µM in data set [6]; 14 µM in data set [7].

Take `C[C@@]12C[C@H]3OC(=O)[C@@H]1CO[C@@]14O[C@@]5([C@H]2C1=O)[C@@]3(C)OC(=O)[C@@]5(O)CC[C@H]1[C@H]4C[C@@H](O)[C@@]2(Cl)CC=CC(=O)[C@]12C`: the viability at 48 h, 10 µM in data set [1] came out at 95.3%; in data set [4] it was 98.3%. Further, the IC50 was 12.5 µM in data set [2], 21.7 µM in data set [3], 12.7 µM in data set [6] and 24.7 µM in data set [7]. Moreover, the “inhibition (INH)” value in data set [5] is below 50%.
